What all share (experiment): relative viability (nuclei count vs DMSO), 5 days (fraction); higher = more cells survive
Compound in the experiment “VE-821 + Vorinostat”: CS(=O)(=O)c1ccc(-c2cnc(N)c(C(=O)Nc3ccccc3)n2)cc1 [VE-821] + O=C(CCCCCCC(=O)Nc1ccccc1)NO [Vorinostat] (partner 1 µM)
In outline: (§1)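 Relative viability divides the nuclei count in treated wells by that in vehicle wells. Lung cancer cell lines were seeded in 1536-well plates, dosed by pin tool the next day, and fixed and stained after 5 days in one step with final 0.05% Triton X-100, 1% formaldehyde and 1 ug/ml Hoechst. Dosing was a single drug or a fixed anchor-drug dose plus five library-drug doses (not always all listed) in √10 steps, and values are medians of duplicate plates imaged at 4×.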

Compound in the experiment “Vismodegib + Bortezomib”: CS(=O)(=O)c1ccc(C(=O)Nc2ccc(Cl)c(-c3ccccn3)c2)c(Cl)c1 [Vismodegib] + CC(C)C[C@H](NC(=O)[C@H](Cc1ccccc1)NC(=O)c1cnccn1)B(O)O [Bortezomib] (partner 0.002 µM)
In outline:
as §1

Compound in the experiment “Ruxolitinib + Bortezomib”: N#CC[C@H](C1CCCC1)n1cc(-c2ncnc3[nH]ccc23)cn1 [Ruxolitinib] + CC(C)C[C@H](NC(=O)[C@H](Cc1ccccc1)NC(=O)c1cnccn1)B(O)O [Bortezomib] (partner 0.002 µM)
In outline: as §1

Compound in the experiment “Ruxolitinib + OSI-027”: N#CC[C@H](C1CCCC1)n1cc(-c2ncnc3[nH]ccc23)cn1 [Ruxolitinib] + COc1cccc2cc(-c3nc([C@H]4CC[C@H](C(=O)O)CC4)n4ncnc(N)c34)[nH]c12 [OSI-027] (partner 0.5 µM)
In outline:
as §1

For the cell line UMC-11, the relative viability with VE-821 + Vorinostat (first compound 0.08 µM) was 0.335; with VE-821 + Vorinostat (first compound 0.253 µM), 0.373; with VE-821 + Vorinostat (first compound 0.8 µM), 0.386; with VE-821 + Vorinostat (first compound 2.53 µM), 0.297; with VE-821 + Vorinostat (first compound 8 µM), 0.202; in the experiment with Vismodegib + Bortezomib (first compound 0.08 µM), 0.593. Further, the relative viability amounted to 0.665 with Vismodegib + Bortezomib (first compound 0.253 µM); 0.85 in the experiment with Vismodegib + Bortezomib (first compound 0.8 µM); 0.717 with Vismodegib + Bortezomib (first compound 2.53 µM); 0.745 with Vismodegib + Bortezomib (first compound 8 µM); 0.696 with Ruxolitinib + Bortezomib (first compound 0.08 µM); 0.983 with Ruxolitinib + Bortezomib (first compound 0.253 µM). The relative viability is 0.929 with Ruxolitinib + Bortezomib (first compound 0.8 µM); 0.715 with Ruxolitinib + Bortezomib (first compound 2.53 µM); 0.706 with Ruxolitinib + Bortezomib (first compound 8 µM); 0.474 with Ruxolitinib + OSI-027 (first compound 0.08 µM); 0.448 in the experiment with Ruxolitinib + OSI-027 (first compound 0.253 µM); 0.561 in the experiment with Ruxolitinib + OSI-027 (first compound 0.8 µM). Further, the relative viability came to 0.498 with Ruxolitinib + OSI-027 (first compound 2.53 µM) and 0.574 with Ruxolitinib + OSI-027 (first compound 8 µM).

Source of the values: the supplement of paper PMC10307832.
